Activity calls are given as the source filed them.
Assays:
[1] = target: Beta-2 adrenergic receptor (Homo sapiens, UniProt P07550); assay: beta2AR agonists driving receptor internalization, dose response, cell-based, FAP fluorogen, flow cytometry, cherry pick 1 (AID 588763); type: functional
[2] = PAX5 activity inhibitors, dose response, selectivity assay for PAX8 inhibitor project, cell-based, plate reader, dry powder samples (AID 743047); type: functional;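 note: HEK293 cells carrying a Pax5 driven CD19 promoter luciferase reporter; potency of inhibitors that lower reporter luminescence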
[3] = system: HEK293; assay: NOD2 signaling inhibitors in MDP-stimulated cells, cell-based, uHTS, luminescence (AID 2001); type: functional; conditions: Homo sapiens
[4] = target: Paired box protein Pax-8 (Homo sapiens, UniProt Q06710); assay: inhibitors of PAX8-driven TPO luciferase reporter, dose response, RMG-I cells, cherry-pick (AID 687027); type: functional, cell-based;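 note: luciferase reporter driven by Pax8 target thyroperoxidase promoter measured by SteadyGlo luminescence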
[5] = target: Nucleotide-binding oligomerization domain-containing protein 2 (Homo sapiens, UniProt Q9HC29); assay: NOD2 signaling inhibitors, cell-based, luminescence, uHTS, HEK293 (AID 1566); type: functional
[6] = target: T1, Microphthalmia-associated transcription factor (Homo sapiens, UniProt O75030); assay: TRPM1 promoter luciferase signal decrease, dose response, MITF inhibitor project, cell-based, SK-MEL-5, cherry-picked, set 3 (AID 493073); type: functional
T1 sequence (O75030 whole entry): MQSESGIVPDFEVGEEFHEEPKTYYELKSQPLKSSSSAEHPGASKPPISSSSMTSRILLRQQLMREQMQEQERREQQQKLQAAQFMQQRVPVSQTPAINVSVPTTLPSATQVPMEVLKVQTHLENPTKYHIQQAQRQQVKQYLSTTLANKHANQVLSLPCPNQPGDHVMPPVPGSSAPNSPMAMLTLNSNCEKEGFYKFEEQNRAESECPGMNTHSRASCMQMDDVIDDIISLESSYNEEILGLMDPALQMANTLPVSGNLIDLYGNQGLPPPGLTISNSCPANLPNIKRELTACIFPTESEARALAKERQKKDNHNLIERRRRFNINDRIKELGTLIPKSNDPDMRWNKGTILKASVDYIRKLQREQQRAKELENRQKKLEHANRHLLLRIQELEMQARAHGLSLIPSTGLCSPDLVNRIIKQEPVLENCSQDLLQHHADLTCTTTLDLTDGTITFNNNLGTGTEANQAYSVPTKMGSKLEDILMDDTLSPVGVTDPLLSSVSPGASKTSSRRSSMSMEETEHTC

[7] = cytotoxicity in OV-90 ovarian cancer cells, dose response, PAX8 inhibitor project, cell-based, plate reader, dry powder, SA8 (AID 743149); type: functional
[8] = PAX2 cell-based inhibition, dose response, selectivity assay for PAX8 inhibitor project, plate reader, dry powder samples (AID 743048); type: functional;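 note: HEK293 cells carrying a WT1 promoter luciferase reporter driven by expressed Pax2; potency is for inhibition of Pax2 driven reporter signal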
[9] = system: HEK293; assay: cells; type: functional, cell-based; conditions: Homo sapiens
[10] = off-target signal loss in HeLa-CEM21 co-culture – HeLa F-luc CTL cells, cherry-picked, counter-screen for HIV-1 Env fusion inhibitor project, dose response (AID 652040); type: functional, cell-based;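 note: potency for signal decrease marking cytotoxic or nonspecific inhibition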
[11] = system: HEK293; assay: NOD1 signaling inhibitors, primary screen, cell-based, luminescence, uHTS (AID 1578); type: functional; conditions: Homo sapiens
[12] = cytotoxicity in COV434 cells, dose response, cytotoxicity control for PAX8 inhibitor project, cell-based, plate reader, dry powder, SA7 (AID 743145); type: functional
[13] = A2780 ovarian cancer cell cytotoxicity, dose response, cytotoxicity control, plate reader, dry powder samples (AID 743046); type: functional, cell-based
[14] = inhibitors of clade B AD8 Env fusion, dose response, cell-based, cherry-pick (AID 652062); type: functional;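 note: luciferase signal from cell-cell fusion driven by HIV-1 clade B AD8 Env; potency is for inhibitors of fusion seen as a drop in luminescence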
[15] = system: A-375; assay: A375 melanoma cell viability reduction, dose response, counter-screen for MITF modulator project, cherry-pick samples, set 2 (AID 540335); type: functional, cell-based; conditions: Homo sapiens
[16] = CEM21 lymphoblast cell cytotoxicity, dose response, cytotoxicity control for viral fusion inhibitor project, CellTiter-Glo luminescence, cherry-picked (AID 652042); type: functional, cell-based;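 note: potency for signal decrease meaning cytotoxicity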
[17] = NIH:OVCAR-3 ovarian cancer cell cytotoxicity, dose response, PAX8 inhibitor project, plate reader, dry powder samples (AID 743044); type: functional, cell-based
[18] = ZM109 Env clade C HIV-1 fusion inhibitors, dose response, HeLa effector, CEM target cells, luciferase, cherry-pick (AID 652058); type: functional, cell-based
[19] = system: HEK293; assay: cells; type: functional, cell-based; conditions: Homo sapiens; remark: listed apart in the source
[20] = system: INS1; assay: beta cell apoptosis inhibitors, cytokine rescue, dose response, luminescence, retest (AID 449756); type: functional, cell-based; conditions: Rattus norvegicus;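 note: cell death triggered by IL-1 beta plus TNF-alpha plus IFN-gamma mixture; protective hits raise ATP signal compared with cytokine alone wells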
[21] = cytotoxicity dependent on PAX8, dose response, cell-based, plate reader, dry powder (AID 743049); type: functional
[22] = system: HEK293; assay: cells; type: functional, cell-based; conditions: Homo sapiens; remark: listed apart in the source
[23] = inhibitors of HIV Env-driven cell fusion, dose response, cherry-pick (AID 652057); type: functional, cell-based
[24] = target: CAAX prenyl protease 2 (Saccharomyces cerevisiae S288c, UniProt Q03530); type: biochemical
[25] = Luminescence Cell-Based Dose Confirmation HTS to Identify Inhibitors of Platelet Dense Granule Release. [Related pubchem assays: 1663 (Primary HTS), 1678 (Summary of Project)]; type: functional
[26] = target: CAAX prenyl protease 2 (Homo sapiens, UniProt Q9Y256); assay: human Rce1 protease inhibitors, dose response, biochemical, plate reader, dry powder samples (AID 588848)
[27] = mammalian cell cytotoxicity, dose response, cytotoxicity control, plate reader, cherry-pick samples (AID 504397); type: functional, cell-based
[28] = target: Luciferin 4-monooxygenase (Photinus pyralis, UniProt P08659); assay: firefly luciferase enzyme inhibitors, dose response, biochemical, luminescence (AID 1891)
[29] = target: T2, Phospholipase D2 (Homo sapiens, UniProt O14939); assay: PLD2 inhibitor potency in cells, dose response (AID 602147); type: functional;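 note: cellular assay in HEK293 cells overexpressing GFP-tagged PLD2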
[30] = target: T3, Phospholipase D1 (Homo sapiens, UniProt Q13393); assay: PLD1 inhibitor potency in cells, dose response (AID 602151); type: functional;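 note: cellular PLD1 assay in Calu-1 cells stimulated with PMA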
[31] = target: Hexokinase HKDC1 (Homo sapiens, UniProt Q2TB90); assay: SAR analysis of small molecule inhibitors of hexokinase domain containing I (HKDC1). [Related pubchem assays (depositor defined):AID493160, AID493190]; type: functional
[32] = target: Hexokinase-1 (Homo sapiens, UniProt P19367); assay: SAR analysis of small molecule inhibitors of hexokinase domain containing I (HKDC1) in the hexokinase 1 selectivity assay. [Related pubchem assays (depositor defined):AID493160, AID493190]; type: functional
[33] = target: T2, Phospholipase D2; assay: PLD2 purified enzyme concentration response. [Related pubchem assays (depositor defined):AID588854]; type: functional
[34] = target: T3, Phospholipase D1; assay: PLD1 purified enzyme concentration response. [Related pubchem assays (depositor defined):AID588854]; type: functional
[35] = target: Procathepsin L (Homo sapiens, UniProt P07711)
[36] = target: Large T antigen (Simian virus 40, UniProt P03070); type: functional, Betapolyomavirus macacae;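 note: Confirmatory-stage PubChem screen for compounds that inhibit SV40 T antigen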
[37] = target: Latent membrane protein 1 (Human herpesvirus 4 (strain B95-8), UniProt P03230); assay: TES1-eGFP NF-kB reporter inhibition versus Tet-On dsRED, dose response, selectivity assay for LMP1 NF-kB inhibitor project, imaging, HEK293T, dual-color eGFP/dsRED, cherry-picks (AID 588398); type: functional, cell-based
[38] = target: T4, Aspartyl aminopeptidase (Plasmodium falciparum 3D7, UniProt Q8I2J3)
T4 sequence (Q8I2J3 whole entry): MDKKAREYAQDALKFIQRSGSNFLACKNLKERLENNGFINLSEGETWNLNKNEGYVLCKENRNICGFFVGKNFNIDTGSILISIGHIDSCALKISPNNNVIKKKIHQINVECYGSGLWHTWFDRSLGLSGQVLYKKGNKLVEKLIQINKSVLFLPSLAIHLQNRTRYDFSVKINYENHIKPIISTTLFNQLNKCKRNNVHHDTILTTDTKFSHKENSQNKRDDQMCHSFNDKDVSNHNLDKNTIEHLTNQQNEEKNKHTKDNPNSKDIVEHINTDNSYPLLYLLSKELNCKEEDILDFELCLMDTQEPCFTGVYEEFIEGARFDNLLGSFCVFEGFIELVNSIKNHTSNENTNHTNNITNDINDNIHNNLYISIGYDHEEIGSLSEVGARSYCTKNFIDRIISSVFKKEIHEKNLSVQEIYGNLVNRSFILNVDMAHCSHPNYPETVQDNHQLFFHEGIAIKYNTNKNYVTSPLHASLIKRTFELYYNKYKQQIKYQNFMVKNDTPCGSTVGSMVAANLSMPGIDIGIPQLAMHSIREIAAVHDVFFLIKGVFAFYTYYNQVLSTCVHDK

[39] = target: Oxytocin receptor (Homo sapiens, UniProt P30559); assay: Fluorescence-based cell-based high throughput dose response assay for potentiators of Oxytocin Receptor (OXTR). [Related pubchem assays: 434985 (Confirmation screen (OXTR potentiators in triplicate)), 2481 (Summary (OXTR potentiators)), 2445 (Primary screen (OXTR potentiators in singlicate))]; type: functional

T2 sequence (O14939 whole entry): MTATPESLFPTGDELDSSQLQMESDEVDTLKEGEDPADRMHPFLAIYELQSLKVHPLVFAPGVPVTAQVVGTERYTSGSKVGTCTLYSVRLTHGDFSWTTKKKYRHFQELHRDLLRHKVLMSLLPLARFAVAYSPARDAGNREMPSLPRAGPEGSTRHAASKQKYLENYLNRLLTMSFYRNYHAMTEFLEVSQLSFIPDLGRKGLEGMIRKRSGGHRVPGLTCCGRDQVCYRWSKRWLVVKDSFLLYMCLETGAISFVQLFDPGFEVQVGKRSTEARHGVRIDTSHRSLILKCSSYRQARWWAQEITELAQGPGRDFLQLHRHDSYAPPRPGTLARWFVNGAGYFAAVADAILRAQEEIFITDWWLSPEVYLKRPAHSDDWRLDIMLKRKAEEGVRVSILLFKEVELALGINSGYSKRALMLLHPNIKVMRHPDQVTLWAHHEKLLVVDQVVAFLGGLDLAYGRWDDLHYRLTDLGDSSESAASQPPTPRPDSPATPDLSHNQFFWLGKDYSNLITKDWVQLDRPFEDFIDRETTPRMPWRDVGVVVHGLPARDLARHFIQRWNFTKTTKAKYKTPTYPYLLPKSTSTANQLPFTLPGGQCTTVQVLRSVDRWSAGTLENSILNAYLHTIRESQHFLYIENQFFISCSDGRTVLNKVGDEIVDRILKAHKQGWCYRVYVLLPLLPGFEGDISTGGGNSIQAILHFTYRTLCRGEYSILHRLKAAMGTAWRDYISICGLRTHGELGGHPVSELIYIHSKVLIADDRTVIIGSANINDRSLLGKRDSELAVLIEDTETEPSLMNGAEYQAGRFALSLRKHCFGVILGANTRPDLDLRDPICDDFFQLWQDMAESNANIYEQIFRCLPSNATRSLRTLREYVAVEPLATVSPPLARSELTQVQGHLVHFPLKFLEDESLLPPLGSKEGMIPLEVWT
T3 sequence (Q13393 whole entry, the tested form may be a part): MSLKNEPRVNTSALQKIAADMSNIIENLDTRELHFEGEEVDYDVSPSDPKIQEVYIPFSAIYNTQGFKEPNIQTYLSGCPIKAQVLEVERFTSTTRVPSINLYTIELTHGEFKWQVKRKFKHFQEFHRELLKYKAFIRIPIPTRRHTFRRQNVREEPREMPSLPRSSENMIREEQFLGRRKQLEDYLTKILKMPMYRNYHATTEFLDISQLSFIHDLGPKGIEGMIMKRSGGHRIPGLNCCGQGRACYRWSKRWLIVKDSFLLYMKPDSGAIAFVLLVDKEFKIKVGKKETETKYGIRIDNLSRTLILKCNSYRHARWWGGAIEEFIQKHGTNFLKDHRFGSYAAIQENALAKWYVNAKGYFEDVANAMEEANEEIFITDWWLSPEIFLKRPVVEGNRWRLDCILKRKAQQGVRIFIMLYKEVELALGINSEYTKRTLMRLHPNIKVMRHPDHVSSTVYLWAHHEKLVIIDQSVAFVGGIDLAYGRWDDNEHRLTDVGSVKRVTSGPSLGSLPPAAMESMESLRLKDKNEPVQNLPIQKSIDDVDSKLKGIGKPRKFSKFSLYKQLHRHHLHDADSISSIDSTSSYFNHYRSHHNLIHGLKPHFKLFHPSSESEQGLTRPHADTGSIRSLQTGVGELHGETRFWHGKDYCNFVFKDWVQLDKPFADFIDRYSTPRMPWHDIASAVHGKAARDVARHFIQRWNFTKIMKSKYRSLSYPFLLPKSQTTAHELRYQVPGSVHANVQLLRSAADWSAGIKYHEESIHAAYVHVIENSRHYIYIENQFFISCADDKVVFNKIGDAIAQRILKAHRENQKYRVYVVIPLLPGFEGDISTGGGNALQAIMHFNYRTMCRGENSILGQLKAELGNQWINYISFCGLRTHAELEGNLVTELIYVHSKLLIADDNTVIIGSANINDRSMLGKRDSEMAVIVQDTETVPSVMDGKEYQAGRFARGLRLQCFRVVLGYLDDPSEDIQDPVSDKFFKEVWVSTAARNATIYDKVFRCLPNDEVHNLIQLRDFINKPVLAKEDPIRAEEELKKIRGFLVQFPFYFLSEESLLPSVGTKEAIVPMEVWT
Paired box protein Pax-8, sequence (Q06710 whole entry, the tested form may be a part): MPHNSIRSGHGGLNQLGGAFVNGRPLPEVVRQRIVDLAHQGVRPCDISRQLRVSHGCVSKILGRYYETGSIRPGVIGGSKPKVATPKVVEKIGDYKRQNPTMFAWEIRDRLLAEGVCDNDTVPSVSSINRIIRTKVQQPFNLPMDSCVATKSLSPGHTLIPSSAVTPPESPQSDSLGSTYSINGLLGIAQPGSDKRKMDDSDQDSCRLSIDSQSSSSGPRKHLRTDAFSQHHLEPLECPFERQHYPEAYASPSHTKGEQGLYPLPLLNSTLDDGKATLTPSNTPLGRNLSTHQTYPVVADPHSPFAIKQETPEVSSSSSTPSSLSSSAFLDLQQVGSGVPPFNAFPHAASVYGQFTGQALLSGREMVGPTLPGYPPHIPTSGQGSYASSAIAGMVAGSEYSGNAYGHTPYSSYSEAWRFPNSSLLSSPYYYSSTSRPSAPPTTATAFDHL
Procathepsin L, sequence (P07711 whole entry): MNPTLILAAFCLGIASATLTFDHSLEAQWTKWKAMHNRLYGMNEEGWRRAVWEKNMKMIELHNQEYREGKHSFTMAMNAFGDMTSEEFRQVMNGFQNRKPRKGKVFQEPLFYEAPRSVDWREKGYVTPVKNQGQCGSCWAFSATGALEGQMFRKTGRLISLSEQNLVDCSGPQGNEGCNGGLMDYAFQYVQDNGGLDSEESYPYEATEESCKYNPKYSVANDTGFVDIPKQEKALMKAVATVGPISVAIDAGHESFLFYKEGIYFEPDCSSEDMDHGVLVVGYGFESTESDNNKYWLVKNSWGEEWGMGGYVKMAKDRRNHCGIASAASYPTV
Hexokinase HKDC1, sequence (Q2TB90 whole entry, the tested form may be a part): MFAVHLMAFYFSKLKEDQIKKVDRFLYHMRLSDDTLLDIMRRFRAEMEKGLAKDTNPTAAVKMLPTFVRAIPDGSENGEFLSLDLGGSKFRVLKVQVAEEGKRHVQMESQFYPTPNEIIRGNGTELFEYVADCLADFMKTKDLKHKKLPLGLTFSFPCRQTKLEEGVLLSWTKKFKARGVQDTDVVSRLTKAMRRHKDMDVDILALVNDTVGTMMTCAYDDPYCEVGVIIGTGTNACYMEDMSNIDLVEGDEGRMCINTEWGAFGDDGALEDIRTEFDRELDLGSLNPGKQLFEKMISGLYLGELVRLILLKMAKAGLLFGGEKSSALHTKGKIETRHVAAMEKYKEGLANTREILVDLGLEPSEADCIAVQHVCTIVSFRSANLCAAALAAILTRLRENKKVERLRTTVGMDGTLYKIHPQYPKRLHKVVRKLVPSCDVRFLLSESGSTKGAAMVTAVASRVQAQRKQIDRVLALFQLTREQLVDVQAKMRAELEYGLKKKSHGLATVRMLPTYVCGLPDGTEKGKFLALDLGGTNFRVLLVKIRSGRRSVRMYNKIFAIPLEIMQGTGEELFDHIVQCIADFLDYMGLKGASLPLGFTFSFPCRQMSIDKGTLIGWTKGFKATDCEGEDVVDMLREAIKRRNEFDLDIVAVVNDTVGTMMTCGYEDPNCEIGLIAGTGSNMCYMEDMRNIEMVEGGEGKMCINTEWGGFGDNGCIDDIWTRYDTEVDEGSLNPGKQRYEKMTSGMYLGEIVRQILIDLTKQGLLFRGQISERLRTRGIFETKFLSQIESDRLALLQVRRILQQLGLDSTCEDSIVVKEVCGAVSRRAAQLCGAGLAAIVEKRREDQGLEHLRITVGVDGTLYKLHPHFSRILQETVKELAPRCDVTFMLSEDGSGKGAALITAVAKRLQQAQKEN
CAAX prenyl protease 2 (Saccharomyces cerevisiae S288c, UniProt Q03530), sequence (Q03530 whole entry): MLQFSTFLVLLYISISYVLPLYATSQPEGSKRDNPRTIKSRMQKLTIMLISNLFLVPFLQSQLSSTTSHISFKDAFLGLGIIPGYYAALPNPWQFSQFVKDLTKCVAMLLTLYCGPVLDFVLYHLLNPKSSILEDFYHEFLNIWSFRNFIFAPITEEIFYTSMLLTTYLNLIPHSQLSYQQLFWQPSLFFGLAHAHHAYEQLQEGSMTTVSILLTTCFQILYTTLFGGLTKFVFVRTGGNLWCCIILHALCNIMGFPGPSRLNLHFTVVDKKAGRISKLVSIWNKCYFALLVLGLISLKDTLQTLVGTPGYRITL
Nucleotide-binding oligomerization domain-containing protein 2, sequence (Q9HC29 whole entry, the tested form may be a part): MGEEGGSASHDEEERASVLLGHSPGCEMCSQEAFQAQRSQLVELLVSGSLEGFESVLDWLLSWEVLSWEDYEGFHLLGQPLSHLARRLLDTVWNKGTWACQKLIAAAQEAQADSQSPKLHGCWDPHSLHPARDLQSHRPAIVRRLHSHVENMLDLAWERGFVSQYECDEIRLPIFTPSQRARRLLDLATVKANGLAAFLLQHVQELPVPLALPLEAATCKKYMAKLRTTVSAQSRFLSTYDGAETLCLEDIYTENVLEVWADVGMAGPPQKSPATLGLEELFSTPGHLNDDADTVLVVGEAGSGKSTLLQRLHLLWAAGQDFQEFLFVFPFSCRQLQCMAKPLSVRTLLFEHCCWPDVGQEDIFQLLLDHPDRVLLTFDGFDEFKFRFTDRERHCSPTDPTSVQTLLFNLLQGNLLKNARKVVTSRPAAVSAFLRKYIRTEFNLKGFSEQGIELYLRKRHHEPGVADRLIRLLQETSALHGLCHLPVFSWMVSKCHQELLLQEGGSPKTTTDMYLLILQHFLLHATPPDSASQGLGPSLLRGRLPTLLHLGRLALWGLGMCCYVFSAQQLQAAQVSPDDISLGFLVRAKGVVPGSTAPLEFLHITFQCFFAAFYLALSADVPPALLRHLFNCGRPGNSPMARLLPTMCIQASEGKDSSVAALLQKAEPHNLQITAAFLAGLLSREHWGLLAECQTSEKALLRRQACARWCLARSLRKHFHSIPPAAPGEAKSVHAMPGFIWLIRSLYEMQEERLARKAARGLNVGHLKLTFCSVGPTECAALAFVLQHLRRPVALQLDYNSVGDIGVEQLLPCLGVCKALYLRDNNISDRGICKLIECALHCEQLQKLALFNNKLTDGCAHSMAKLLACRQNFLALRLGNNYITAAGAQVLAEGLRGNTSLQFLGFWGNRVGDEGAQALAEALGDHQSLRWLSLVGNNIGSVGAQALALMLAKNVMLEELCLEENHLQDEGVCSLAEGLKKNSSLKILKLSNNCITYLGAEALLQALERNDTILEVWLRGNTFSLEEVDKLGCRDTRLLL

For `O=C(NCCCn1ccnc1)C1CCCN(S(=O)(=O)c2cc(Cl)ccc2Cl)C1` (centres undefined), the EC50 [1] was 0.999 µM (active).

With `CCSCCc1nnc(NC(=O)Nc2cccc(C(F)(F)F)c2)s1` the AC50 [2] was 5.02 µM (active), the IC50 [3] was 2.68 µM (active) and the AC50 [4] was 7.31 µM (active). For the same compound, the EC50 [5] was 15 µM (active), the AC50 [6] was 8.99 µM (active) and the AC50 [7] was > 100 µM (inactive). The AC50 [8] was 5.05 µM (active), the IC50 [9] was 9.13 µM (active) and the AC50 [10] was 3.56 µM (active). The EC50 [11] was 2.16 µM (active), the AC50 [12] was 35.2 µM (active) and the AC50 [13] was 8.04 µM (active). For the same compound, the AC50 [14] was 7.84 µM (active), the AC50 [15] was 6.62 µM (active) and the AC50 [16] was 5.2 µM (active). For the same compound, the AC50 [17] was 27.4 µM (active), the AC50 [18] was 4.07 µM (active) and the IC50 [19] was > 20 µM (inactive). The AC50 [20] was 3.91 µM (active), the AC50 [21] was 23.1 µM (active) and the IC50 [22] was 2.57 µM (active). For the same compound, the AC50 [23] was 5.97 µM (active).

In the case of `O=C(COC(=O)/C=C/c1cn(-c2ccccc2)nc1-c1ccc2c(c1)OCCO2)NC1CCS(=O)(=O)C1` (centres undefined), the AC50 [24] is reported as 0.542 µM (active), the EC50 [25] is reported as > 112 µM (not active) and the AC50 [26] is reported as 17.4 µM (active). The AC50 [27] was 89.2 µM (active) and the EC50 [28] was > 112 µM (not active).

For `CN1CN(c2ccccc2)C2(CCN(CCNC(=O)c3ccc4ccccc4c3)CC2)C1=O`, the IC50 [29] was 20 µM (active) and the IC50 [30] was 2.8 µM (active).

With `COc1ccc(/C=C/c2nc3ccccc3c(=O)n2Cc2ccccc2)cc1` the IC50 [31] was > 80 µM (inactive) and the IC50 [32] was > 80 µM (inactive).

In the case of `O=C(NCCN1CCC2(CC1)C(=O)NCN2c1cccc(F)c1)c1cnc2ccccc2c1`, the IC50 [33] is reported as 0.13 µM (active) and the IC50 [34] is reported as 2.8 µM (active).

With `O=c1c(O)c(-c2ccc(O)c(O)c2)oc2cc(O)cc(O)c12` [QUERCETIN DIHYDRATE] the IC50 [35] was > 59.6 µM (not active), the IC50 [36] was 16.1 µM (active) and the AC50 [37] was 233 µM (active). The IC50 [38] was 0.385 µM (active) and the EC50 [39] was > 29.9 µM (not active).

Source: ChEMBL document CHEMBL1201862, “PubChem BioAssay data set” (2004)
